Experiment: In vitro acyl-CoA oxidase activity assay of E. coli lysates
Type: biochemical, Candida strain ATCC20336
Settings: wild type enzyme, FIG. 21
Description: Acyl-CoA oxidases from a range of organisms were cloned into the E. coli expression vector pET26b (EMD4Biosciences, Darmstadt, Germany), which contains a kanamycin resistance cassette. The source of the acyl-CoA oxidase, the name of the gene, the primers and restriction enzymes used to clone the acyl CoA oxidase coding sequence into pET26b and the coding sequence are described herein. The acyl CoA oxidase coding sequences were amplified by PCR using the appropriate primers designed from cDNA libraries, published cDNA or genomic DNA sequences corresponding to the organism. […]
To express an enzyme, a colony from each transformation of Rosetta cells was used to start a 5 ml overnight culture of LB containing the antibiotics kanamycin (to select for pET26b) and chloramphenicol (to select for a second plasmid found in Rosetta II cells that mediates improved translation of eukaryotic proteins expressed in E. coli) grown at 37° C. The next morning, the overnight culture was used to seed 30 ml of LB containing kanamycin and chloramphenicol to an OD600 reading of 0.1. […]
To test the activity of the acyl CoA oxidase, cells from the overnight induction were pelleted at 1046×g at 4° C. in 50 ml conical tubes. […] The spectrophotometer was set to read for 5 minutes at 500 nm, 30° C. […]

## Pox5: wild type acyl CoA oxidase Pox5 from Candida strain ATCC20336
  activity on C6 and C8 substrates: low activity
  substrate chain length of optimal activity: 12 to 18 carbons

— US9850493B2, “Biological methods for preparing a fatty dicarboxylic acid” (VERDEZYNE, INC., priority 2012, dated 2017)
